Reference: ChEMBL document CHEMBL4004838, “Design and synthesis of novel phenyl -1, 4-beta-carboline-hybrid molecules as potential anticancer agents” (Eur J Med Chem, 2017)

Columns and labels:
Format in all cases: functional
[1] = tested on: A498; assay: Growth inhibition of human A498 cells incubated for 48 hrs by sulforhodamine B assay; conditions: A498, 48 h
[2] = tested on: ACHN; assay: Growth inhibition of human ACHN cells assessed as cell growth at 100 uM incubated for 48 hrs by sulforhodamine B assay relative to control; conditions: read-out: Activity
[3] = tested on: SK-MEL-28; assay: Growth inhibition of human SK-MEL-28 cells assessed as cell growth at 0.1 uM incubated for 48 hrs by sulforhodamine B assay relative to control; conditions: SK-MEL-28, 48 h, read-out: Activity
[4] = tested on: HCC 2998; assay: Growth inhibition of human HCC2998 cells assessed as cell growth at 100 uM incubated for 48 hrs by sulforhodamine B assay relative to control; conditions: HCC 2998, 48 h, read-out: Activity
[5] = tested on: NCI-H460; assay: Growth inhibition of human NCI-H460 cells assessed as cell growth at 0.1 uM incubated for 48 hrs by sulforhodamine B assay relative to control; conditions: NCI-H460, 48 h, read-out: Activity
[6] = tested on: TK-10; assay: Growth inhibition of human TK10 cells assessed as cell growth at 100 uM incubated for 48 hrs by sulforhodamine B assay relative to control; conditions: TK-10, 48 h, read-out: Activity
[7] = tested on: SW-620; assay: Growth inhibition of human SW620 cells assessed as cell growth at 1 uM incubated for 48 hrs by sulforhodamine B assay relative to control; conditions: SW-620, 48 h, read-out: Activity
[8] = tested on: SK-MEL-2; assay: Growth inhibition of human SK-MEL-2 cells assessed as cell growth at 1 uM incubated for 48 hrs by sulforhodamine B assay relative to control; conditions: SK-MEL-2, 48 h, read-out: Activity
[9] = tested on: NCI-H460; assay: Growth inhibition of human NCI-H460 cells assessed as cell growth at 0.01 uM incubated for 48 hrs by sulforhodamine B assay relative to control; conditions: NCI-H460, 48 h, read-out: Activity
[10] = tested on: UACC-62; assay: Growth inhibition of human UACC62 cells incubated for 48 hrs by sulforhodamine B assay; conditions: UACC-62, 48 h
[11] = tested on: OVCAR-5; assay: Growth inhibition of human OVCAR5 cells assessed as cell growth at 0.1 uM incubated for 48 hrs by sulforhodamine B assay relative to control; conditions: OVCAR-5, 48 h, read-out: Activity
[12] = tested on: BT-549; assay: Growth inhibition of human BT549 cells assessed as cell growth at 1 uM incubated for 48 hrs by sulforhodamine B assay relative to control; conditions: BT-549, 48 h, read-out: Activity
[13] = tested on: M14; assay: Growth inhibition of human M14 cells assessed as cell growth at 0.1 uM incubated for 48 hrs by sulforhodamine B assay relative to control; conditions: M14, 48 h, read-out: Activity
[14] = tested on: OVCAR-5; assay: Growth inhibition of human OVCAR5 cells assessed as cell growth at 100 uM incubated for 48 hrs by sulforhodamine B assay relative to control; conditions: OVCAR-5, 48 h, read-out: Activity
[15] = tested on: UACC-257; assay: Growth inhibition of human UACC257 cells assessed as cell growth at 0.01 uM incubated for 48 hrs by sulforhodamine B assay relative to control; conditions: UACC-257, 48 h, read-out: Activity
[16] = tested on: SNB-19; assay: Growth inhibition of human SNB19 cells assessed as cell growth at 100 uM incubated for 48 hrs by sulforhodamine B assay relative to control; conditions: SNB-19, 48 h, read-out: Activity
[17] = tested on: OVCAR-3; assay: Growth inhibition of human OVCAR3 cells incubated for 48 hrs by sulforhodamine B assay; conditions: OVCAR-3, 48 h
[18] = tested on: TK-10; assay: Growth inhibition of human TK10 cells assessed as cell growth at 1 uM incubated for 48 hrs by sulforhodamine B assay relative to control; conditions: TK-10, 48 h, read-out: Activity
[19] = tested on: HL-60(TB); assay: Growth inhibition of human HL-60(TB) cells assessed as cell growth at 1 uM incubated for 48 hrs by sulforhodamine B assay relative to control; conditions: HL-60, 48 h, read-out: Activity
[20] = tested on: MDA-MB-468; assay: Growth inhibition of human MDA-MB-468 cells assessed as cell growth at 100 uM incubated for 48 hrs by sulforhodamine B assay relative to control; conditions: MDA-MB-468, 48 h, read-out: Activity
[21] = tested on: CAKI-1; assay: Growth inhibition of human Caki1 cells assessed as cell growth at 0.1 uM incubated for 48 hrs by sulforhodamine B assay relative to control; conditions: CAKI-1, 48 h, read-out: Activity
[22] = tested on: U-251; assay: Growth inhibition of human U251 cells assessed as cell growth at 0.01 uM incubated for 48 hrs by sulforhodamine B assay relative to control; conditions: U-251, 48 h, read-out: Activity
[23] = tested on: CCRF-CEM; assay: Growth inhibition of human CCRF-CEM cells assessed as cell growth at 1 uM incubated for 48 hrs by sulforhodamine B assay relative to control; conditions: read-out: Activity
[24] = tested on: 786-0; assay: Growth inhibition of human 786-0 cells assessed as cell growth at 1 uM incubated for 48 hrs by sulforhodamine B assay relative to control; conditions: 786-0, 48 h, read-out: Activity
[25] = tested on: HT-29; assay: Growth inhibition of human HT-29 cells assessed as cell growth at 0.01 uM incubated for 48 hrs by sulforhodamine B assay relative to control; conditions: HT-29, 48 h, read-out: Activity
[26] = tested on: NCI-H460; assay: Growth inhibition of human NCI-H460 cells assessed as cell growth at 1 uM incubated for 48 hrs by sulforhodamine B assay relative to control; conditions: NCI-H460, 48 h, read-out: Activity
[27] = tested on: UO-31; assay: Growth inhibition of human UO31 cells assessed as cell growth at 1 uM incubated for 48 hrs by sulforhodamine B assay relative to control; conditions: UO-31, 48 h, read-out: Activity
[28] = tested on: LOX IMVI; assay: Growth inhibition of human LOXIMVI cells incubated for 48 hrs by sulforhodamine B assay
[29] = tested on: UACC-62; assay: Growth inhibition of human UACC62 cells assessed as cell growth at 0.01 uM incubated for 48 hrs by sulforhodamine B assay relative to control; conditions: UACC-62, 48 h, read-out: Activity
[30] = tested on: CAKI-1; assay: Growth inhibition of human Caki1 cells assessed as cell growth at 1 uM incubated for 48 hrs by sulforhodamine B assay relative to control; conditions: CAKI-1, 48 h, read-out: Activity
[31] = tested on: RXF 393; assay: Growth inhibition of human RXF393 cells assessed as cell growth at 0.01 uM incubated for 48 hrs by sulforhodamine B assay relative to control; conditions: RXF 393, 48 h, read-out: Activity
[32] = read-out: LC50 (the source's name)
[33] = read-out: pLC50 (the source's name) (converted)

Structure (SMILES): c1ccc2[nH]c(-c3ccc(-c4nccc5c4[nH]c4ccccc45)cc3)nc2c1
- GI50 ([1]; read-out: GI50): 1.14 µM
- CC50 [1, 32]: 5.68 µM
- GI50 ([1]; read-out: pGI50 (converted)): 11.5 µM
- CC50 [1, 33]: 56.2 µM
- TGI ([1]; read-out: pTGI (converted)): 25.7 µM
- growth at 100 µM [2]: 98%
- growth at 0.1 µM [3]: 98%
- growth at 100 µM [4]: 76%
- growth at 0.1 µM [5]: 110%
- growth at 100 µM [6]: 85%
- growth at 1 µM [7]: 96%
- growth at 1 µM [8]: 94%
- growth at 0.01 µM [9]: 107%
- GI50 ([10]; read-out: GI50): 1.6 µM
- CC50 [10, 32]: 7.62 µM
- TGI ([10]; read-out: TGI): 3.49 µM
- GI50 ([10]; read-out: pGI50 (converted)): 1.58 µM
- CC50 [10, 33]: 7.59 µM
- TGI ([10]; read-out: pTGI (converted)): 3.47 µM
- growth at 0.1 µM [11]: 90%
- growth at 1 µM [12]: 90%
- growth at 0.1 µM [13]: 98%
- growth at 100 µM [14]: 62%
- growth at 0.01 µM [15]: 93%
- growth at 100 µM [16]: 29%
- GI50 ([17]; read-out: GI50): 1.8 µM
- CC50 [17, 32]: 7.36 µM
- TGI ([17]; read-out: TGI): 3.64 µM
- GI50 ([17]; read-out: pGI50 (converted)): 1.82 µM
- CC50 [17, 33]: 7.41 µM
- TGI ([17]; read-out: pTGI (converted)): 3.63 µM
- growth at 1 µM [18]: 96%
- growth at 1 µM [19]: 94%
- growth at 100 µM [20]: 63%
- growth at 0.1 µM [21]: 96%
- growth at 0.01 µM [22]: 101%
- growth at 1 µM [23]: 103%
- growth at 1 µM [24]: 89%
- growth at 0.01 µM [25]: 100%
- growth at 1 µM [26]: 97%
- growth at 1 µM [27]: 90%
- GI50 ([28]; read-out: GI50): 1.67 µM
- TGI ([28]; read-out: TGI): 3.82 µM
- GI50 ([28]; read-out: pGI50 (converted)): 1.66 µM
- TGI ([28]; read-out: pTGI (converted)): 3.8 µM
- growth at 0.01 µM [29]: 89%
- growth at 1 µM [30]: 91%
- growth at 0.01 µM [31]: 106%

Structure (SMILES): c1ccc2c3c([nH]c2c1)C(c1ccc(C2NCCc4c2[nH]c2ccccc42)cc1)NCC3 (racemic)
- GI50 ([1]; read-out: GI50): 1.64 µM
- CC50 [1, 32]: 36.9 µM
- TGI ([1]; read-out: TGI): 8.87 µM
- GI50 ([1]; read-out: pGI50 (converted)): 1.66 µM
- CC50 [1, 33]: 37.2 µM
- TGI ([1]; read-out: pTGI (converted)): 8.91 µM
- growth at 100 µM [2]: -91%
- growth at 0.1 µM [3]: 96%
- growth at 100 µM [4]: 84%
- growth at 0.1 µM [5]: 106%
- growth at 100 µM [6]: -96%
- growth at 1 µM [7]: 86%
- growth at 1 µM [8]: 86%
- growth at 0.01 µM [9]: 105%
- CC50 [10, 32]: 5.15 µM
- GI50 ([10]; read-out: pGI50 (converted)): 0.741 µM
- CC50 [10, 33]: 5.13 µM
- TGI ([10]; read-out: pTGI (converted)): 2.14 µM
- growth at 0.1 µM [11]: 93%
- growth at 1 µM [12]: 85%
- growth at 0.1 µM [13]: 94%
- growth at 100 µM [14]: 90%
- growth at 0.01 µM [15]: 101%
- growth at 100 µM [16]: 88%
- GI50 ([17]; read-out: GI50): 1.24 µM
- CC50 [17, 32]: 5.43 µM
- TGI ([17]; read-out: TGI): 2.6 µM
- GI50 ([17]; read-out: pGI50 (converted)): 1.23 µM
- CC50 [17, 33]: 5.5 µM
- TGI ([17]; read-out: pTGI (converted)): 2.57 µM
- growth at 1 µM [18]: 97%
- growth at 1 µM [19]: 57%
- growth at 100 µM [20]: -78%
- growth at 0.1 µM [21]: 93%
- growth at 0.01 µM [22]: 98%
- growth at 1 µM [23]: 21%
- growth at 1 µM [24]: 92%
- growth at 0.01 µM [25]: 104%
- growth at 1 µM [26]: 56%
- growth at 1 µM [27]: 52%
- GI50 ([28]; read-out: GI50): 1.96 µM
- CC50 [28, 32]: 1.1 µM
- TGI ([28]; read-out: TGI): 4.5 µM
- GI50 ([28]; read-out: pGI50 (converted)): 0.195 µM
- CC50 [28, 33]: 1.1 µM
- TGI ([28]; read-out: pTGI (converted)): 4.47 µM
- growth at 0.01 µM [29]: 96%
- growth at 1 µM [30]: 78%
- growth at 0.01 µM [31]: 101%
